The results in this text go back to patent US11590109B2 (priority 2016, dated 2023).

Structures are written as SMILES.

Data set [1] concerns H1N1 (influenza virus). The experiment in a line: microbe, parasite or virus in culture. The settings on record: Influenza A virus, H1N1, MDCK, H1N1 in host cell MDCK, CPE.
The test system of data set [2] is H3N2 (influenza virus). In words: microbe, parasite or virus in culture. The settings on record: Influenza A virus, H3N2, MDCK, H3N2 in host cell MDCK, CPE.
The next data set can be described thus: in vitro. The settings on record: dog.
The test system of data set [3] is H3N2 (influenza virus). As to conditions: H3N2 in host cell MDCK.
Data set [4] has as its system H1N1 (influenza virus). The settings on record: H1N1 in host cell MDCK.
The subject of the next data set is H7N9 (influenza virus). The experiment in a line: microbe, parasite or virus in culture. The settings on record: Influenza A virus, H7N9, MDCK.
[5] abbreviates: TC50, host cell MDCK, H1N1 table.
[6] abbreviates: TC50, host cell MDCK, H3N2 table.

Regarding `COc1cccc(-c2csc(N/N=C/c3ccccc3C(=O)O)n2)c1` [Compound 52, (E)-2-((2-(4-(3-methoxyphenyl)thiazol-2-yl)hydrazono)methyl)benzoic Acid], the half-inhibitory concentration (IC50) in the data set with H1N1 (influenza virus) [1] is 1240 µM; with H3N2 (influenza virus) [2], 147 µM.
For `CN(/N=C/c1ccccc1C(=O)O)c1nc(-c2cccc(Cl)c2)cs1` [Compound 21, (E)-4-(3-chlorophenyl)-2-[1-methyl-2-(2-carboxybenzylidene)hydrazino]thiazole], the CC50 came out at 41 µM in “in vitro” (setting [5]) and 49 µM in the data set “in vitro” (setting [6]). Further, the IC50 with H1N1 (influenza virus) [1] stood at 5.4 µM; in the data set with H3N2 (influenza virus) [2], 2.5 µM. In addition, the “SI (TC50/IC50)” value in the data set with H3N2 (influenza virus) [3] is 19.6; in the data set on H1N1 (influenza virus) [4], 7.6.
With `CN(/N=C/c1cc(O)c(F)cc1C(=O)O)c1nc(-c2ccccc2Cl)cs1` [Compound 24], the half-maximal inhibitory concentration (IC50) was determined as 325 µM with H1N1 (influenza virus) [1] and 152 µM with H3N2 (influenza virus) [2].
On the same counts, the results for `O=C(O)c1ccccc1/C=N/Nc1nc(-c2ccc3ccccc3c2)cs1` [Compound 56, (E)-2-((2-(4-(naphthalen-2-yl)thiazol-2-yl)hydrazono)methyl)benzoic Acid] are 2310 µM and 549 µM.
In the case of `CCCC(C)N(/N=C/c1ccccc1C(=O)O)c1nc(-c2ccccc2Cl)cs1` (stereo not drawn) [Compound 6, (E)-4-(2-chlorophenyl)-2-[1-(2-amyl)-2-(2-carboxybenzylidene)hydrazino]thiazole], the CC50 was 451 µM in “in vitro” (setting [5]) and 97 µM in “in vitro” (setting [6]). Besides, the IC50 with H1N1 (influenza virus) [1] is 124 µM; with H3N2 (influenza virus) [2], 554 µM. In addition, the “SI (TC50/IC50)” value turned out to be 0.18 in the data set on H3N2 (influenza virus) [3] and 2 in the data set with H1N1 (influenza virus) [4].
For the molecule `NC(=O)c1cccc(-c2csc(N/N=C/c3ccccc3C(=O)O)n2)c1` [Compound 53, (E)-2-((2-(4-(3-aminoformylphenyl)thiazol-2-yl)hydrazono)methyl)benzoic Acid], the concentration for half-maximal inhibition (IC50) with H1N1 (influenza virus) [1] turned out to be 781 µM; in the data set with H3N2 (influenza virus) [2] it was 216 µM.
With `CN(/N=C/c1ccccc1C(=O)O)c1nc(-c2cc(Cl)ccc2Cl)cs1` [Compound 19, (E)-4-(2,5-dichlorophenyl)-2-[1-methyl-2-(2-carboxybenzylidene)hydrazino]thiazole], the CC50 worked out at 26 µM in “in vitro” (setting [5]) and 43 µM in “in vitro” (setting [6]). For the same molecule, the results for the IC50 with H1N1 (influenza virus) [1] and with H3N2 (influenza virus) [2] were 0.56 µM and 0.9 µM, respectively. Moreover, the “SI (TC50/IC50)” value is 47.8 with H3N2 (influenza virus) [3] and 46 with H1N1 (influenza virus) [4].
Regarding `Cc1ccc(-c2csc(N/N=C/c3ccccc3C(=O)O)n2)cc1` [Compound 54, (E)-2-((2-(4-(p-tolyl)thiazol-2-yl)hydrazono)methyl)benzoic Acid], the results for the IC50 in the data set with H1N1 (influenza virus) [1] and in the data set with H3N2 (influenza virus) [2] were 112 µM and 326 µM, respectively.
For the molecule `CCC(C)N(/N=C/c1ccccc1C(=O)O)c1nc(-c2ccccc2Cl)cs1` (stereo not drawn) [Compound 5, (E)-4-(2-chlorophenyl)-2-[1-(2-butyl)-2-(2-carboxybenzylidene)hydrazino]thiazole], the CC50 in “in vitro” (setting [5]) was 68 µM; in the data set “in vitro” (setting [6]), 89 µM. Also, the IC50 stood at 52 µM with H1N1 (influenza virus) [1] and 243 µM in the data set with H3N2 (influenza virus) [2]. The figures for the “SI (TC50/IC50)” value in the data set on H3N2 (influenza virus) [3] and in the data set with H1N1 (influenza virus) [4] were 0.37 and 1.3, respectively.
`O=C(O)c1ccccc1/C=N/Nc1nc(-c2ccccc2)cs1` [Compound 18, (E)-4-phenyl-2-(2-carboxybenzylidenehydrazino)thiazole]: the CC50 in “in vitro” (setting [5]) stood at 124 µM; in the data set “in vitro” (setting [6]), 148 µM. In addition, the IC50 was 10.2 µM with H1N1 (influenza virus) [1] and 45 µM with H3N2 (influenza virus) [2]. Moreover, the “SI (TC50/IC50)” value is recorded as 3.3 with H3N2 (influenza virus) [3] and 12 with H1N1 (influenza virus) [4].
On to `Cc1sc(N/N=C/c2ccccc2C(=O)O)nc1-c1ccccc1` [Compound 17, (E)-5-methyl-4-phenyl-2-(2-carboxylbenzylidenehydrazino)thiazole], for which the CC50 in “in vitro” (setting [5]) came to 561 µM; in “in vitro” (setting [6]), 94 µM. The IC50 was determined as 8.1 µM with H1N1 (influenza virus) [1] and 1.5 µM in the data set with H3N2 (influenza virus) [2]. In addition, the results for the “SI (TC50/IC50)” value with H3N2 (influenza virus) [3] and in the data set with H1N1 (influenza virus) [4] were 62.6 and 7, respectively.
In the case of `Cc1ccc(/C=N/N(C)c2nc(-c3ccccc3)c(C)s2)c(C(=O)O)c1` [Compound 11, (E)-5-methyl-4-phenyl-2-[1-methyl-2-(4-methyl-2-carboxybenzylidene)hydrazino]thiazole], the values for the CC50 in the data set “in vitro” (TC50), in the data set “in vitro” (setting [5]) and in “in vitro” (setting [6]) were 54 µM, 241 µM and 234 µM, respectively. Also, the results for the 50% inhibitory concentration (IC50) in the data set with H1N1 (influenza virus) [1], in the data set with H7N9 (influenza virus) and in the data set with H3N2 (influenza virus) [2] were 5.1 µM, 14 µM and 86 µM, respectively. For the same molecule, the results for the “SI (TC50/IC50)” value in the data set on H3N2 (influenza virus) [3] and in the data set with H1N1 (influenza virus) [4] were 2.72 and 47, respectively.
In the case of `CC(C)N(/N=C/c1ccccc1C(=O)O)c1nc(-c2ccccc2Cl)cs1` [Compound 4, (E)-4-(2-chlorophenyl)-2-[1-isopropyl-2-(2-carboxybenzylidene)hydrazino]thiazole], the CC50 in “in vitro” (setting [5]) was 23 µM; in “in vitro” (setting [6]), 35 µM. Further, the figures for the IC50 in the data set with H1N1 (influenza virus) [1] and with H3N2 (influenza virus) [2] were 2.6 µM and 112 µM, respectively. The “SI (TC50/IC50)” value with H3N2 (influenza virus) [3] is 0.31; in the data set with H1N1 (influenza virus) [4], 8.8.
On to `CCCC(C)N(/N=C/c1ccccc1C(=O)O)c1nc(-c2ccccc2Cl)c(C)s1` (stereo not drawn) [Compound 22, (E)-5-methyl-4-(2-chlorophenyl)-2-[1-(2-amyl)-2-(2-carboxybenzylidene)hydrazino]thiazole], for which the CC50 was 148 µM in the data set “in vitro” (setting [5]) and 415 µM in the data set “in vitro” (setting [6]). Moreover, the concentration for half-maximal inhibition (IC50) in the data set on H1N1 (influenza virus) [1] was determined as 55 µM; in the data set on H3N2 (influenza virus) [2] it was 248 µM. Moreover, the “SI (TC50/IC50)” value in the data set on H3N2 (influenza virus) [3] came to 1.6; in the data set on H1N1 (influenza virus) [4] it was 2.7.
Consider `CN(/N=C/c1cc(F)c(F)cc1C(=O)O)c1nc(-c2ccccc2Cl)cs1` [Compound 23], for which the CC50 in the data set “in vitro” (TC50) amounted to 54 µM; in “in vitro” (setting [5]), 87 µM. Besides, the IC50 in the data set with H1N1 (influenza virus) [1] was 0.39 µM; with H7N9 (influenza virus) it was 0.35 µM. For the same molecule, the “SI (TC50/IC50)” value in the data set with H1N1 (influenza virus) [4] was determined as 223.
`CCCN(/N=C/c1ccccc1C(=O)O)c1nc(-c2ccccc2Cl)cs1` [Compound 3, (E)-4-(2-chlorophenyl)-2-[1-propyl-2-(2-carboxybenzylidene)hydrazino]thiazole]: the CC50 in the data set “in vitro” (setting [5]) amounted to 86 µM; in the data set “in vitro” (setting [6]) it was 52 µM. In addition, the values for the IC50 with H1N1 (influenza virus) [1] and in the data set with H3N2 (influenza virus) [2] were 12.3 µM and 25 µM, respectively. Also, the results for the “SI (TC50/IC50)” value in the data set with H3N2 (influenza virus) [3] and in the data set with H1N1 (influenza virus) [4] were 2.08 and 7, respectively.
`CCc1sc(N/N=C/c2ccccc2C(=O)O)nc1-c1ccccc1Cl` [Compound 14, (E)-5-ethyl-4-(2-chlorophenyl)-2-(2-carboxylbenzylidenehydrazino)thiazole]: the CC50 in “in vitro” (setting [5]) is 88 µM; in the data set “in vitro” (setting [6]) it was 91 µM. The IC50 in the data set with H1N1 (influenza virus) [1] worked out at 41 µM; in the data set with H3N2 (influenza virus) [2], 550 µM. The “SI (TC50/IC50)” value in the data set on H3N2 (influenza virus) [3] is on record as 0.16; with H1N1 (influenza virus) [4], 2.1.
On to `Cc1sc(N(C)/N=C/c2ccccc2C(=O)O)nc1-c1ccccc1Cl` [Compound 13], for which the CC50 in the data set “in vitro” (setting [5]) worked out at 87 µM; in “in vitro” (setting [6]), 373 µM. In addition, the IC50 with H1N1 (influenza virus) [1] turned out to be 65 µM; with H3N2 (influenza virus) [2] it was 114 µM. The entries for the “SI (TC50/IC50)” value in the data set with H3N2 (influenza virus) [3] and in the data set on H1N1 (influenza virus) [4] were 3.27 and 1.3, respectively.
`O=C(O)c1ccccc1/C=N/N(CCO)c1nc(-c2ccccc2Cl)cs1` [Compound 7]: the results for the CC50 in the data set “in vitro” (setting [5]) and in “in vitro” (setting [6]) were 355 µM and 124 µM, respectively. In addition, the half-inhibitory concentration (IC50) in the data set with H1N1 (influenza virus) [1] came out at 221 µM; in the data set with H3N2 (influenza virus) [2], 248 µM. In addition, the “SI (TC50/IC50)” value in the data set with H3N2 (influenza virus) [3] is reported as 0.5; in the data set with H1N1 (influenza virus) [4], 1.6.
On to `O=C(O)c1c(F)cccc1/C=N/Nc1nc(-c2ccccc2Cl)cs1` [Compound 58, (E)-2-((2-(4-(2-chlorophenyl)thiazol-2-yl)hydrazono)methyl)-6-fluorobenzoic Acid], for which, in the data set “in vitro” (setting [5]), the CC50 amounted to 254 µM. Also, the IC50 in the data set with H1N1 (influenza virus) [1] was determined as 5.6 µM; in the data set with H3N2 (influenza virus) [2] it was 365 µM. Further, in the data set with H1N1 (influenza virus) [4], the “SI (TC50/IC50)” value turned out to be 45.
Consider `CN(/N=C/c1ccccc1C(=O)O)c1nc(-c2ccccc2)cs1` [Compound 20, (E)-4-phenyl-2-[1-methyl-2-(2-carboxybenzylidene)hydrazino]thiazole], for which the CC50 in the data set “in vitro” (setting [5]) and in “in vitro” (setting [6]) was 57 µM in each case. Further, the figures for the half-inhibitory concentration (IC50) in the data set on H1N1 (influenza virus) [1] and with H3N2 (influenza virus) [2] were 2.5 µM and 5.2 µM, respectively. Besides, the “SI (TC50/IC50)” value in the data set on H3N2 (influenza virus) [3] was 11; in the data set with H1N1 (influenza virus) [4], 22.8.
`Cc1sc(N/N=C/c2ccccc2C(=O)O)nc1-c1ccccc1Cl` [Compound 15, (E)-5-methyl-4-(2-chlorophenyl)-2-(2-carboxylbenzylidenehydrazino)thiazole]: the figures for the CC50 in the data set “in vitro” (setting [5]) and in “in vitro” (setting [6]) were 412 µM and 88 µM, respectively. The figures for the IC50 with H1N1 (influenza virus) [1] and with H3N2 (influenza virus) [2] were 124 µM and 351 µM, respectively. Besides, the “SI (TC50/IC50)” value with H1N1 (influenza virus) [4] amounted to 3.3.
Consider `O=C(O)c1ccccc1/C=N/Nc1nc(-c2ccc(-c3ccccc3)cc2)cs1` [Compound 57, (E)-2-((2-(4-(biphenyl-4-yl)thiazol-2-yl)hydrazono)methyl)benzoic Acid], for which the figures for the IC50 in the data set with H1N1 (influenza virus) [1] and in the data set with H3N2 (influenza virus) [2] were 1290 µM and 4430 µM, respectively.
The corresponding values for `CN(/N=C/c1cc(N)c(F)cc1C(=O)O)c1nc(-c2ccccc2Cl)cs1` [Compound 25] are 485 µM and 742 µM.
